ChEMBL document CHEMBL1201862, “PubChem BioAssay data set” (2004)
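How tested: cells in 96-well plates exposed to compound for 48 hours at five concentrations. Here, GI50 denotes the concentration required for 50% inhibition of growth.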 Active and inactive are the calls of the source. No stated cut-off is given here; in the data, active = GI50 up to about 1.1 µM and inactive = higher.

Columns and labels:
Assay in all cases: DTP human tumour cell line panel, 48 h
M19-MEL = test system: M19-MEL
UACC-62 = test system: UACC-62
RPMI-8226 = test system: RPMI-8226
HL-60 = test system: HL-60
TK-10 = test system: TK-10
SNB-75 = test system: SNB-75
HCT-15 = test system: HCT-15
OVCAR-4 = test system: OVCAR-4
OVCAR-8 = test system: OVCAR-8
LOX IMVI = test system: LOX IMVI
K562 = test system: K562
SNB-19 = test system: SNB-19
HOP-18 = test system: HOP-18
SF-539 = test system: SF-539
SNB-78 = test system: SNB-78
NCI-H522 = test system: NCI-H522
786-0 = test system: 786-0
IGROV-1 = test system: IGROV-1
SK-OV-3 = test system: SK-OV-3
HCC 2998 = test system: HCC 2998
Malme-3M = test system: Malme-3M
COLO 205 = test system: COLO 205
NCI-H23 = test system: NCI-H23
MOLT-4 = test system: MOLT-4
SF-295 = test system: SF-295
SN12C = test system: SN12C
UO-31 = test system: UO-31
NCI-H460 = test system: NCI-H460
ACHN = test system: ACHN
RXF 631 = test system: RXF 631
U-251 = test system: U-251
HT-29 = test system: HT-29
HCT-116 = test system: HCT-116
A498 = test system: A498
NCI-H226 = test system: NCI-H226
SF-268 = test system: SF-268
SK-MEL-28 = test system: SK-MEL-28
EKVX = test system: EKVX
A549 = test system: A549
SR = test system: SR
XF498 = test system: XF498
RXF 393 = test system: RXF 393
HOP-62 = test system: HOP-62
DLD-1 = test system: DLD-1
UACC-257 = test system: UACC-257
OVCAR-3 = test system: OVCAR-3
DMS-114 = test system: DMS-114
SK-MEL-2 = test system: SK-MEL-2
HOP-92 = test system: HOP-92
KM12 = test system: KM12
SW-620 = test system: SW-620
M14 = test system: M14
CCRF-CEM = test system: CCRF-CEM
OVCAR-5 = test system: OVCAR-5
CAKI-1 = test system: CAKI-1
DMS-273 = test system: DMS-273
KM-20L2 = test system: KM-20L2
SK-MEL-5 = test system: SK-MEL-5
LXFL 529 = test system: LXFL 529

Measured: GI50

CN1C=C(C(N)=O)C2CC(O)[C@@](NC(=O)CS(N)(=O)=O)(C(=O)O)C2C1 (stereo partly specified)
active: HL-60 < 0.01 µM
8.91 µM: HCT-15
inactive: M19-MEL 4.39 µM | UACC-62 2.17 µM | RPMI-8226 18 µM | TK-10 3.92 µM | SNB-75 2.23 µM | OVCAR-4 2.09 µM | OVCAR-8 5.9 µM | LOX IMVI 2.37 µM | K562 2.17 µM | SNB-19 2.79 µM | HOP-18 8.41 µM | SF-539 2.05 µM | SNB-78 2.75 µM | NCI-H522 11.7 µM | 786-0 3.61 µM | IGROV-1 2.73 µM | SK-OV-3 2.47 µM | HCC 2998 18.5 µM | Malme-3M 4.57 µM | COLO 205 14.1 µM | NCI-H23 1.86 µM | MOLT-4 1.7 µM | SF-295 2.75 µM | SN12C 18.2 µM | UO-31 3.05 µM | NCI-H460 3.49 µM | ACHN 4.88 µM | RXF 631 2.98 µM | U-251 3.05 µM | HT-29 3.33 µM | HCT-116 3.32 µM | A498 2.03 µM | NCI-H226 2.68 µM | SF-268 3.02 µM | SK-MEL-28 2.43 µM | EKVX 4.19 µM | A549 3.25 µM | SR 2.02 µM | XF498 1.27 µM | RXF 393 1.76 µM | HOP-62 1.82 µM | DLD-1 16.8 µM | UACC-257 5.24 µM | OVCAR-3 17.5 µM | DMS-114 2.52 µM | SK-MEL-2 2.92 µM | HOP-92 1.49 µM | KM12 20.7 µM | SW-620 3.87 µM | M14 1.49 µM | CCRF-CEM 9.33 µM | OVCAR-5 2.42 µM | CAKI-1 5.46 µM | DMS-273 3.21 µM | KM-20L2 3.79 µM | SK-MEL-5 6.31 µM

O=S(=O)(/C=C/c1ccc(F)cc1)Cc1ccc(CS(=O)(=O)/C=C/c2ccc(F)cc2)cc1
> 100 µM: HCT-15
inactive: M19-MEL > 100 µM | UACC-62 > 100 µM | RPMI-8226 > 100 µM | HL-60 > 100 µM | TK-10 > 100 µM | SNB-75 > 100 µM | OVCAR-4 > 100 µM | OVCAR-8 > 100 µM | LOX IMVI > 100 µM | K562 > 100 µM | SNB-19 > 100 µM | HOP-18 > 100 µM | SF-539 > 100 µM | SNB-78 > 100 µM | NCI-H522 > 100 µM | 786-0 > 100 µM | IGROV-1 > 100 µM | SK-OV-3 > 100 µM | HCC 2998 > 100 µM | Malme-3M > 100 µM | COLO 205 > 100 µM | NCI-H23 > 100 µM | MOLT-4 > 100 µM | SF-295 > 100 µM | SN12C > 100 µM | UO-31 > 100 µM | NCI-H460 > 100 µM | ACHN > 100 µM | RXF 631 > 100 µM | U-251 > 100 µM | HT-29 > 100 µM | HCT-116 > 100 µM | NCI-H226 > 100 µM | SF-268 > 100 µM | SK-MEL-28 > 100 µM | EKVX > 100 µM | A549 > 100 µM | SR > 100 µM | XF498 > 100 µM | RXF 393 > 100 µM | LXFL 529 > 100 µM | HOP-62 > 100 µM | DLD-1 > 100 µM | UACC-257 > 100 µM | OVCAR-3 > 100 µM | DMS-114 > 100 µM | SK-MEL-2 > 100 µM | HOP-92 > 100 µM | KM12 > 100 µM | SW-620 > 100 µM | M14 > 100 µM | CCRF-CEM > 100 µM | OVCAR-5 > 100 µM | CAKI-1 > 100 µM | DMS-273 > 100 µM | KM-20L2 > 100 µM | SK-MEL-5 > 100 µM
